{
  "source": "patent US20080261863A1",
  "about": "(priority 2004, published 2008)",
  "key": {"[1]": {"assay": "Measurement of blood pressure in anesthetized rats", "assay_type": "in vivo, rat", "settings": "male, Wistar, rat, in vivo; intravenous, rats; read-out: ED50 blood pressure lowering", "protocol": "(§1) Blood pressure in rats was measured following administration of either non-PEGylated or PEGylated VPAC2 agonist peptides. Blood pressure was measured as follows: Male Wistar rats were anesthetized with pentobarbital (55 mg/kg, i.p.) and the right carotid artery and jugular vein were cannulated. The carotid cannula was connected to the Biopac System (Harvard Apparatus Co., Harvard, Mass.) for continuous monitoring of blood pressure and heart rate. Vehicle or peptide was administered by injection through the jugular vein catheter."}, "[2]": {"tested_on": "blood pressure in Male Wistar rats", "assay": "Measurement of blood pressure in anesthetized rats", "assay_type": "in vivo, rat", "settings": "FIG. 2, percentage of mean blood pressure of vehicle-treated rats", "protocol": "as §1"}, "[3]": {"target": "T1, VPAC1 (Homo sapiens, UniProt P32241)", "T1 sequence (P32241 31-457)": "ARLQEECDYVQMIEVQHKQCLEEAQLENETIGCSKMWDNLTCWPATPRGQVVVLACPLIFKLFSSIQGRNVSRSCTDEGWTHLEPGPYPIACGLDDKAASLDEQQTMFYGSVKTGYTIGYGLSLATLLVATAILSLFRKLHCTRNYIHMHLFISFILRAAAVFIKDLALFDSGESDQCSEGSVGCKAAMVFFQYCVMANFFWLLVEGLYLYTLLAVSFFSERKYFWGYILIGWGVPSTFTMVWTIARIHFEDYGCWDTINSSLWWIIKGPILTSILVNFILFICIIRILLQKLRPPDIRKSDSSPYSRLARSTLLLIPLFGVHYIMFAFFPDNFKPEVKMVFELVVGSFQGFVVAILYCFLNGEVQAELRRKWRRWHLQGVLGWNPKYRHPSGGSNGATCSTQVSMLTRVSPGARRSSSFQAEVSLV", "assay": "Cyclic AMP assay, VPAC1 agonist activity", "assay_type": "cell-based"}, "[4]": {"target": "T2, VPAC2 receptor (Homo sapiens, UniProt P41587)", "T2 construct": "expressed in transfected cells; host or cells: CHO cells under hygromycin and Geneticin selection", "T2 sequence (P41587 24-438)": "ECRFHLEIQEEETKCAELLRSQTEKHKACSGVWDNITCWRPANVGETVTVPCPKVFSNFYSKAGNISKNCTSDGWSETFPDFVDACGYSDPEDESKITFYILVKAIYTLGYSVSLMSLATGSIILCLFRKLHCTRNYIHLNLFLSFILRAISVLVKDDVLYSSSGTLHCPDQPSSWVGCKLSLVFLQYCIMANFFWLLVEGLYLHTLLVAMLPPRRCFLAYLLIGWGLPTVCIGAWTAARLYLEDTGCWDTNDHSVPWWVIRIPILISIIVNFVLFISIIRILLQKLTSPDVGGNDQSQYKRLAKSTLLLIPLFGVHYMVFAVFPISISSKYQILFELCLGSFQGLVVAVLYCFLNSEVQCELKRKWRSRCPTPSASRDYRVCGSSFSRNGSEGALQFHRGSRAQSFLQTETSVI", "assay": "Cyclic AMP SPA in CHO cells expressing VPAC2", "assay_type": "cell-based", "settings": "cAMP in cells overexpressing the VPAC2 receptor", "quoted_text": "CHO cells expressing the VPAC2 peptide were plated in 96-well plates at 8×10^4 cells/well and grown at 37° C. for 24 hours in αMEM, nucleosides, glutamine (Gibco/BRL, Rockville, Md.), 5% FBS, 100 μg/mL Pen/Strep, 0.4 mg/mL hygromycin, and 1.5 mg/mL Geneticin (Gibco/BRL). The media was removed and the plates were washed with PBS. The cells were incubated with a peptide (in 10 mM Hepes, 150 mM NaCl, 5 mM KCl, 2.5 mM CaCl2, 1.2 mM KH2PO4, 1.2 mM MgSO4, 25 mM NaHCO3 (pH 7.4) with 1% BSA and 100 μM IBMX) for 15 min. at 37° C. Cyclic AMP in the cell extracts was quantitated using the cAMP SPA direct screening assay system (Amersham Pharmacia Biotech Inc., Piscataway, N.J.,). The amount of cAMP present in the lysates was determined following instructions provided with this kit. The amount of cAMP (in pmol) produced at each concentration of peptide was plotted and analyzed by nonlinear regression using Prizm software to determine the EC50 for each peptide."}},
  "data": [
    {"compound": "CC[C@H](C)[C@H](NC(=O)[C@H](CO)NC(=O)[C@H](CCC(N)=O)NC(=O)[C@H](CC(C)C)NC(=O)[C@H](Cc1ccc(O)cc1)NC(=O)[C@H](CCCCN)NC(=O)[C@H](CCCCN)NC(=O)[C@H](C)NC(=O)[C@H](C)NC(=O)[C@@H](NC(=O)[C@H](CCC(N)=O)NC(=O)[C@H](CCCCN)NC(=O)[C@H](CCCNC(=N)N)NC(=O)[C@H](CC(C)C)NC(=O)[C@H](CCCNC(=N)N)NC(=O)[C@@H](NC(=O)[C@H](Cc1ccc(O)cc1)NC(=O)[C@H](CCC(N)=O)NC(=O)[C@H](CC(=O)O)NC(=O)[C@@H](NC(=O)[C@H](Cc1ccccc1)NC(=O)[C@@H](NC(=O)[C@H](C)NC(=O)[C@H](CC(=O)O)NC(=O)[C@H](CO)NC(=O)[C@@H](N)Cc1c[nH]cn1)C(C)C)[C@@H](C)O)[C@@H](C)O)C(C)C)C(=O)N[C@@H](CCCCN)C(=O)N[C@@H](CCC(N)=O)C(=O)N[C@@H](CCCCN)C(=O)N[C@@H](CCCNC(=N)N)C(=O)N[C@@H](Cc1ccc(O)cc1)C(=O)N[C@@H](CS)C(=O)O", "note": "[Peptide P12]", "values": [
      {"measurement": "ED50", "setting": "[1]", "result": 3, "unit": "µg/kg"},
      {"measurement": "effect on blood pressure", "setting": "[2]", "result": "significantly lowers blood pressure"}
    ]},
    {"compound": "PACAP-27", "values": [
      {"measurement": "VPAC1 agonist activity", "setting": "[3]", "result": "potent agonist of both the VPAC1 and VPAC2 receptors"},
      {"measurement": "VPAC2 receptor agonist activity", "setting": "[4]", "result": "potent agonist of both the VPAC1 and VPAC2 receptors"}
    ]}
  ]
}
